pEC50, pIC50: −log10 of the molar value.
target: T1, DNMT1 (Homo sapiens, UniProt P26358); assay: HotSpot radioisotope methyltransferase assay, DNMT1 (Poly dI-dC substrate); assay type: biochemical; conditions: 100 μM compound; Table 3; read-out: % Inhibition (DNMT1)
T1 construct: purchased Reaction Biology Corporation (contract screening service)
Experimental: First, the 10 compounds were tested at a single concentration (100 μM) in duplicate in a biochemical DNMT assay. […] Predicted binding modes for the five compounds were studied using molecular docking, implementing a novel re-scoring algorithm recently developed.
The inhibition of the enzymatic activity of DNMT1, DNMT3B, and DNMT3B/3L was tested using the HotSpot^SM platform for methyltransferase assays available at Reaction Biology Corporation. HotSpot^SM is a low volume radioisotope-based assay that uses tritium-labeled AdoMet (^3H-SAM) as a methyl donor. The test compounds diluted in dimethyl sulfoxide were added using acoustic technology (Echo550, Labcyte) into enzyme/substrate mixture in the nano-liter range. The corresponding reactions were commenced by the addition of ^3H-SAM and incubated at 30°C. Total final methylations on the substrate (Poly dI-dC in DNMT1 assay, and Lambda DNA in DNMT3B; DNMT3B/3L assay) were identified by a filter binding method implemented in Reaction Biology. Data analysis was conducted with Graphed Prism software (La Jolla, CA, USA) for curve fits. Reactions were carried out at 1 μM of SAM. […] The 10 compounds were tested first with DNMT1 and DNMT3B at one 100 μM concentration in duplicate. […] Theaflavin was also tested with DNMT3B and DNMT3B/L in 10-dose IC50 with threefold serial dilution starting at 100 μM.

T1 sequence (P26358 whole entry): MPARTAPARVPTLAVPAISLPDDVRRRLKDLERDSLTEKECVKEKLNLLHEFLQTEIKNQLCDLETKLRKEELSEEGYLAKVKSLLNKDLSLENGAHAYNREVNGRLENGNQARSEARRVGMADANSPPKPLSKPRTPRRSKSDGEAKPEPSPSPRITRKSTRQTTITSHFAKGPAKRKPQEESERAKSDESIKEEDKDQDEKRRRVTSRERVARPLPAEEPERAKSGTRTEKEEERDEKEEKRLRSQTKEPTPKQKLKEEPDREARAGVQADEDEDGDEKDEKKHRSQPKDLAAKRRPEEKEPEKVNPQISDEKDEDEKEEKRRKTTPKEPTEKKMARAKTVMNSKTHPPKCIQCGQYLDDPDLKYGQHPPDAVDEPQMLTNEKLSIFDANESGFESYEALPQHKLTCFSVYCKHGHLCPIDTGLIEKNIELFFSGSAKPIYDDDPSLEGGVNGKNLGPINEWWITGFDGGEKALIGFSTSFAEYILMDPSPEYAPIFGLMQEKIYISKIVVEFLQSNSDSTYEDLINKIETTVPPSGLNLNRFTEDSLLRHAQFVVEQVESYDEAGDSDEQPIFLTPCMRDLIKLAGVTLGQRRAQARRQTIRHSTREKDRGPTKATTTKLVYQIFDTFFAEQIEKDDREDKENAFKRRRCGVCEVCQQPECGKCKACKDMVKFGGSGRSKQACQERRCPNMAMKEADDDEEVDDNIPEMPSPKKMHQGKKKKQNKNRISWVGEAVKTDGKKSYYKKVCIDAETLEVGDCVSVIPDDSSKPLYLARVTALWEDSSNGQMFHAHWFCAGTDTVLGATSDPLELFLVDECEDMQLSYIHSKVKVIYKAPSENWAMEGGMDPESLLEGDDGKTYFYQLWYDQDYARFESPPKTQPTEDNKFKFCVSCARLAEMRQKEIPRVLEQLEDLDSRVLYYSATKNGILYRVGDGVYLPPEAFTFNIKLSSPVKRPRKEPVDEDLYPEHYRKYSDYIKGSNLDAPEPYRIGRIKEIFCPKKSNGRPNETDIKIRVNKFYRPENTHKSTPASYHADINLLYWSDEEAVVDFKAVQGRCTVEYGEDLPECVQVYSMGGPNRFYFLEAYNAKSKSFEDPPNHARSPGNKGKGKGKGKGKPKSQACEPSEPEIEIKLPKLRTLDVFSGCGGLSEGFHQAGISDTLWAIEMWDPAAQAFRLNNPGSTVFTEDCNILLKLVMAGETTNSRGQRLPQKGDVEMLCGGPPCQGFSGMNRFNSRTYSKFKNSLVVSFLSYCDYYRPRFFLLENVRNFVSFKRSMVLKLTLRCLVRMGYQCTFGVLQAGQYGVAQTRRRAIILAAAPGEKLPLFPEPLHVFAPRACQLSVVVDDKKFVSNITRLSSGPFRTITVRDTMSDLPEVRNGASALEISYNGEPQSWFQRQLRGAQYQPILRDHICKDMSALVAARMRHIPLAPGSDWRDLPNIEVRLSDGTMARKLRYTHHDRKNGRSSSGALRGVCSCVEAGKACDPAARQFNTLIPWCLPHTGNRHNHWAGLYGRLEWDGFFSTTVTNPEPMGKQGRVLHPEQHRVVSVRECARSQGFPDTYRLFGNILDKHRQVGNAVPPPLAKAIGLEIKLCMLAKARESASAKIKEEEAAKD

| Structure (SMILES) | inhibition at 100 µM |
| --- | --- |
| Cc1ccnc2nc(C(=O)Nc3nc(-c4ccc5c(c4)OCO5)cs3)nn12 [CSC026286840] | 26.6% |
| O=C(O)c1ccc(NS(=O)(=O)c2ccc(N3CCCC3=O)cc2)cc1 [CSC027083851] | -5.71% |
| Cc1cc(NC(=O)CN2CCN(c3cc(C(N)=O)c4ccccc4n3)CC2)no1 [CSC027480404] | 30% |
| Cc1cc(NCc2nnc(Cc3ccccc3)o2)ccc1C(N)=O [CSC027694519] | 64.6% |
| CC(C)(CC(=O)Nc1cccc(Cn2cccn2)c1)C(=O)O [CSC027796832] | -7.25% |
| COc1ccc(Cl)cc1C(=O)NCCc1ccc(S(=O)(=O)NC(=O)NC2CCCCC2)cc1 [Glyburide, reference compound] | 60% |
| Cc1[nH]c2ccccc2c1CCNCc1ccc(/C=C/C(=O)NO)cc1 [Panobinostat, reference compound] | 62.7% |
| O=c1c(O)cc([C@H]2Oc3cc(O)cc(O)c3C[C@H]2O)cc2c([C@H]3Oc4cc(O)cc(O)c4C[C@H]3O)cc(O)c(O)c12 [Theaflavin] | 65.4% |
| COc1ccc(S(=O)(=O)Nc2c(C)n(C)n(-c3ccccc3)c2=O)cc1C(=O)O [compound 6631802] | 6.74% |
| Cc1ccc(Cl)cc1NS(=O)(=O)c1ccc(NS(=O)(=O)c2ccc3ccccc3c2)cc1 [compound 7936171] | 62.3% |

same assay, conditions: 100 μM compound; mean of two measurements ± SD; 1 μM SAM

| Structure (SMILES) | relative enzymatic activity of DNMT1 |
| --- | --- |
| Cc1ccnc2nc(C(=O)Nc3nc(-c4ccc5c(c4)OCO5)cs3)nn12 [CSC026286840] | 73.45 (±3.06) % |
| O=C(O)c1ccc(NS(=O)(=O)c2ccc(N3CCCC3=O)cc2)cc1 [CSC027083851] | 105.71 (±1.27) % |
| Cc1cc(NC(=O)CN2CCN(c3cc(C(N)=O)c4ccccc4n3)CC2)no1 [CSC027480404] | 70.63 (±0.19) % |
| Cc1cc(NCc2nnc(Cc3ccccc3)o2)ccc1C(N)=O [CSC027694519] | 35.42 (±1.78) % |
| CC(C)(CC(=O)Nc1cccc(Cn2cccn2)c1)C(=O)O [CSC027796832] | 107.25 (±0.59) % |
| COc1ccc(Cl)cc1C(=O)NCCc1ccc(S(=O)(=O)NC(=O)NC2CCCCC2)cc1 [Glyburide, reference compound] | 40.04 (±0.78) % |
| O=c1c(O)cc([C@H]2Oc3cc(O)cc(O)c3C[C@H]2O)cc2c([C@H]3Oc4cc(O)cc(O)c4C[C@H]3O)cc(O)c(O)c12 [Theaflavin] | 34.62 (±0.06) % |
| COc1ccc(S(=O)(=O)Nc2c(C)n(C)n(-c3ccccc3)c2=O)cc1C(=O)O [compound 6631802] | 93.26 (±7.97) % |
| Cc1ccc(Cl)cc1NS(=O)(=O)c1ccc(NS(=O)(=O)c2ccc3ccccc3c2)cc1 [compound 7936171] | 37.74 (±2.15) % |

same assay, conditions: 100 μM compound; rounded values; 100 µM

| Structure (SMILES) | inhibition of DNMT1 |
| --- | --- |
| Cc1ccnc2nc(C(=O)Nc3nc(-c4ccc5c(c4)OCO5)cs3)nn12 [CSC026286840] | 30% |
| Cc1cc(NC(=O)CN2CCN(c3cc(C(N)=O)c4ccccc4n3)CC2)no1 [CSC027480404] | 30% |

same assay, conditions: 100 μM compound; rounded values; read-out: inhibition of DNMT1

| Structure (SMILES) | inhibition at 100 µM |
| --- | --- |
| Cc1ccnc2nc(C(=O)Nc3nc(-c4ccc5c(c4)OCO5)cs3)nn12 [CSC026286840] | 27% |
| Cc1cc(NC(=O)CN2CCN(c3cc(C(N)=O)c4ccccc4n3)CC2)no1 [CSC027480404] | 29% |
| Cc1cc(NCc2nnc(Cc3ccccc3)o2)ccc1C(N)=O [CSC027694519] | 65% |
| COc1ccc(Cl)cc1C(=O)NCCc1ccc(S(=O)(=O)NC(=O)NC2CCCCC2)cc1 [Glyburide, reference compound] | 60% |
| Cc1[nH]c2ccccc2c1CCNCc1ccc(/C=C/C(=O)NO)cc1 [Panobinostat, reference compound] | 63% |
| O=c1c(O)cc([C@H]2Oc3cc(O)cc(O)c3C[C@H]2O)cc2c([C@H]3Oc4cc(O)cc(O)c4C[C@H]3O)cc(O)c(O)c12 [Theaflavin] | 65% |
| Cc1ccc(Cl)cc1NS(=O)(=O)c1ccc(NS(=O)(=O)c2ccc3ccccc3c2)cc1 [compound 7936171] | 62% |

same assay, conditions: 10-dose, threefold serial dilution starting at 100 μM; 1 μM SAM; mean of two measurements; read-out: DNMT1 IC50

| Structure (SMILES) | pIC50 |
| --- | --- |
| Cc1cc(NCc2nnc(Cc3ccccc3)o2)ccc1C(N)=O [CSC027694519] | 4.07 |
| COc1ccc(Cl)cc1C(=O)NCCc1ccc(S(=O)(=O)NC(=O)NC2CCCCC2)cc1 [Glyburide, reference compound] | 4.25 |
| O=c1c(O)cc([C@H]2Oc3cc(O)cc(O)c3C[C@H]2O)cc2c([C@H]3Oc4cc(O)cc(O)c4C[C@H]3O)cc(O)c(O)c12 [Theaflavin] | 4.07 |
| Cc1ccc(Cl)cc1NS(=O)(=O)c1ccc(NS(=O)(=O)c2ccc3ccccc3c2)cc1 [compound 7936171] | 4.10 |

same assay, conditions: -log value of the IC50; read-out: pIC50 (DNMT1) (converted)

| Structure (SMILES) | IC50 |
| --- | --- |
| Cc1ccc(Cl)cc1NS(=O)(=O)c1ccc(NS(=O)(=O)c2ccc3ccccc3c2)cc1 [compound 7936171] | 77.6 µM |

target: T2, DNMT3B (Homo sapiens, UniProt Q9UBC3); assay: HotSpot radioisotope methyltransferase assay, DNMT3B (Lambda DNA substrate); assay type: biochemical; conditions: 100 μM compound; mean of two measurements ± SD; 1 μM SAM
T2 construct: purchased Reaction Biology Corporation (contract screening service)
Experimental: First, the 10 compounds were tested at a single concentration (100 μM) in duplicate in a biochemical DNMT assay. SAH was used as a reference. […] Predicted binding modes for the five compounds were studied using molecular docking, implementing a novel re-scoring algorithm recently developed.
(§1) The inhibition of the enzymatic activity of DNMT1, DNMT3B, and DNMT3B/3L was tested using the HotSpot^SM platform for methyltransferase assays available at Reaction Biology Corporation. HotSpot^SM is a low volume radioisotope-based assay that uses tritium-labeled AdoMet (^3H-SAM) as a methyl donor. The test compounds diluted in dimethyl sulfoxide were added using acoustic technology (Echo550, Labcyte) into enzyme/substrate mixture in the nano-liter range. The corresponding reactions were commenced by the addition of ^3H-SAM and incubated at 30°C. Total final methylations on the substrate (Poly dI-dC in DNMT1 assay, and Lambda DNA in DNMT3B; DNMT3B/3L assay) were identified by a filter binding method implemented in Reaction Biology. Data analysis was conducted with Graphed Prism software (La Jolla, CA, USA) for curve fits. Reactions were carried out at 1 μM of SAM. In all assays, SAH was used as a standard positive control. The 10 compounds were tested first with DNMT1 and DNMT3B at one 100 μM concentration in duplicate. […] Theaflavin was also tested with DNMT3B and DNMT3B/L in 10-dose IC50 with threefold serial dilution starting at 100 μM. The authors have previously contracted the screening services of Reaction Biology Corporation to identify a novel inhibitor of DNMT1 [24].

| Structure (SMILES) | relative enzymatic activity of DNMT3B |
| --- | --- |
| Cc1ccnc2nc(C(=O)Nc3nc(-c4ccc5c(c4)OCO5)cs3)nn12 [CSC026286840] | 90.59 (±2.49) % |
| O=C(O)c1ccc(NS(=O)(=O)c2ccc(N3CCCC3=O)cc2)cc1 [CSC027083851] | 97.85 (±5.66) % |
| Cc1cc(NC(=O)CN2CCN(c3cc(C(N)=O)c4ccccc4n3)CC2)no1 [CSC027480404] | 96.39 (±0.28) % |
| Cc1cc(NCc2nnc(Cc3ccccc3)o2)ccc1C(N)=O [CSC027694519] | 97.42 (±2.49) % |
| CC(C)(CC(=O)Nc1cccc(Cn2cccn2)c1)C(=O)O [CSC027796832] | 95.28 (±0.47) % |
| COc1ccc(Cl)cc1C(=O)NCCc1ccc(S(=O)(=O)NC(=O)NC2CCCCC2)cc1 [Glyburide, reference compound] | 95.97 (±4.76) % |
| O=c1c(O)cc([C@H]2Oc3cc(O)cc(O)c3C[C@H]2O)cc2c([C@H]3Oc4cc(O)cc(O)c4C[C@H]3O)cc(O)c(O)c12 [Theaflavin] | 66.75 (±1.11) % |
| COc1ccc(S(=O)(=O)Nc2c(C)n(C)n(-c3ccccc3)c2=O)cc1C(=O)O [compound 6631802] | 93.54 (±0.54) % |
| Cc1ccc(Cl)cc1NS(=O)(=O)c1ccc(NS(=O)(=O)c2ccc3ccccc3c2)cc1 [compound 7936171] | 78.20 (±0.30) % |

same assay, conditions: 100 μM compound; rounded values

| Structure (SMILES) | inhibition at 100 µM |
| --- | --- |
| O=c1c(O)cc([C@H]2Oc3cc(O)cc(O)c3C[C@H]2O)cc2c([C@H]3Oc4cc(O)cc(O)c4C[C@H]3O)cc(O)c(O)c12 [Theaflavin] | 33% |
| Cc1ccc(Cl)cc1NS(=O)(=O)c1ccc(NS(=O)(=O)c2ccc3ccccc3c2)cc1 [compound 7936171] | 22% |

same assay, conditions: 100 μM compound; rounded values; listed as naphthalene sulfonamide, 100 µM

| Structure (SMILES) | inhibition of DNMT3B |
| --- | --- |
| Cc1ccc(Cl)cc1NS(=O)(=O)c1ccc(NS(=O)(=O)c2ccc3ccccc3c2)cc1 [compound 7936171] | higher than 20% |

same assay, conditions: 10-dose, threefold serial dilution starting at 100 μM

| Structure (SMILES) | pIC50 |
| --- | --- |
| O=c1c(O)cc([C@H]2Oc3cc(O)cc(O)c3C[C@H]2O)cc2c([C@H]3Oc4cc(O)cc(O)c4C[C@H]3O)cc(O)c(O)c12 [Theaflavin] | < 4.00 |

target: T3, DNMT3B/3L (Homo sapiens, UniProt Q9UBC3); assay: HotSpot radioisotope methyltransferase assay, DNMT3B/3L (Lambda DNA substrate); assay type: biochemical; conditions: 10-dose, threefold serial dilution starting at 100 μM
T3 construct: purchased Reaction Biology Corporation (contract screening service)
Experimental: as §1

| Structure (SMILES) | pIC50 |
| --- | --- |
| O=c1c(O)cc([C@H]2Oc3cc(O)cc(O)c3C[C@H]2O)cc2c([C@H]3Oc4cc(O)cc(O)c4C[C@H]3O)cc(O)c(O)c12 [Theaflavin] | < 4.00 |

target: viral NS5 RNA methyltransferase; assay: not given; design: method as in PMID 20108931; conditions: cited from earlier work

| Structure (SMILES) | pIC50 |
| --- | --- |
| Cc1ccc(Cl)cc1NS(=O)(=O)c1ccc(NS(=O)(=O)c2ccc3ccccc3c2)cc1 [compound 7936171] | 4.19 |

target: viral NS5 RNA methyltransferase; assay: not given; design: method as in PMID 20108931; conditions: cited from earlier work; remark: another data set of the same source

| Structure (SMILES) | pEC50 |
| --- | --- |
| Cc1ccc(Cl)cc1NS(=O)(=O)c1ccc(NS(=O)(=O)c2ccc3ccccc3c2)cc1 [compound 7936171] | 4.92 |

tested on: A549 cell line; assay: not given; conditions: read-out: IC50 for A549 cell line; human lung cancer cell line harboring wild-type p53; cited from earlier work

| Structure (SMILES) | pIC50 |
| --- | --- |
| NNc1nncc2ccccc12 [Hydralazine] | 5.70 |

tested on: U373MG cell line; assay: not given; conditions: read-out: IC50 for U373MG cell line; human glioblastoma cell line harboring inactive mutant p53; cited from earlier work

| Structure (SMILES) | pIC50 |
| --- | --- |
| NNc1nncc2ccccc12 [Hydralazine] | 4.70 |

tested on: Hut78 cell line; assay: not given; conditions: read-out: IC50 for Hut78 cell line; cutaneous T cell lymphoma; cited from earlier work

| Structure (SMILES) | pIC50 |
| --- | --- |
| NNc1nncc2ccccc12 [Hydralazine] | 4.52 |
